Reference: ChEMBL document CHEMBL3885881, “DrugMatrix”
“And” between values parts separate entries of the source, which are not always exact repeats. Equal values may be shown once.

Species: Rattus norvegicus
Experiment: DrugMatrix - Regimen: Daily Repeat
Format: toxicity, organism-based, Sprague-Dawley
Design: regimen Daily Repeat, gender Male, age 6-8 weeks
Conditions: in vivo, po, 0 mg/kg, route oral GAVAGE, dose level Control, vehicle .5 % CMC; for BASOPHIL / EOSINOPHIL / ERYTHROCYTE COUNT / HEMATOCRIT / HEMOGLOBIN / LEUKOCYTE COUNT / LYMPHOCYTE / MEAN CORPUSCULAR HEMOGLOBIN / MEAN CORPUSCULAR HEMOGLOBIN CONCENTRATION / MEAN CORPUSCULAR VOLUME / MONOCYTE / NEUTROPHIL / PLATELET COUNT / ABSOLUTE BASOPHIL / ABSOLUTE EOSINOPHIL / ABSOLUTE LYMPHOCYTE / ABSOLUTE MONOCYTE / ABSOLUTE SEGMENTED NEUTROPHIL: tissue Blood
[1] = 72 h, tissue Plasma, time 3 day
[2] = 120 h, tissue Plasma, time 5 day
[3] = 2184 h, tissue Plasma, time 91 day

For Clc1cc2c(cc1Cl)Oc1cc(Cl)c(Cl)cc1O2 [2,3,7,8-TETRACHLORODIBENZO-P-DIOXIN], the BASOPHIL (72 h, time 3 day) was 0.52%, the EOSINOPHIL (72 h, time 3 day) was 0.48% and the “ERYTHROCYTE COUNT” value (72 h, time 3 day) was 6.68 x10E6/uL. For the same compound, the HEMATOCRIT (72 h, time 3 day) was 43.07%, the HEMOGLOBIN (72 h, time 3 day) was 13.48 G/DL and the “LEUKOCYTE COUNT” value (72 h, time 3 day) was 11.41 x10E3/uL. For the same compound, the LYMPHOCYTE (72 h, time 3 day) was 80.78%, the “MEAN CORPUSCULAR HEMOGLOBIN” value (72 h, time 3 day) was 20.2 pg and the “MEAN CORPUSCULAR HEMOGLOBIN CONCENTRATION” value (72 h, time 3 day) was 31.32 G/DL. For the same compound, the “MEAN CORPUSCULAR VOLUME” value (72 h, time 3 day) was 64.45 fL, the MONOCYTE (72 h, time 3 day) was 2.23% and the NEUTROPHIL (72 h, time 3 day) was 14.73%. For the same compound, the “PLATELET COUNT” value (72 h, time 3 day) was 1225.83 x10E3/uL, the “ALANINE AMINOTRANSFERASE” value [1] was 44.5 u/L and the ALBUMIN [1] was 3.62 G/DL. For the same compound, the “ALKALINE PHOSPHATASE” value [1] was 404.5 u/L, the “ASPARTATE AMINOTRANSFERASE” value [1] was 71.67 u/L and the “BLOOD UREA NITROGEN” value [1] was 15 mg/dL. The CHLORIDE [1] was 103 MEQ/L, the CHOLESTEROL [1] was 96.83 mg/dL and the “CREATINE PHOSPHOKINASE” value [1] was 236 u/L. The CREATININE [1] was 0.43 mg/dL, the GLUCOSE [1] was 186.83 mg/dL and the PHOSPHORUS [1] was 12.67 mg/dL. For the same compound, the POTASSIUM [1] was 7.1 MEQ/L, the SODIUM [1] was 147.33 MEQ/L and the “TOTAL BILIRUBIN” value [1] was 0.52 mg/dL. For the same compound, the “TOTAL PROTEIN” value [1] was 6.18 G/DL, the ABSOLUTE BASOPHIL (120 h, time 5 day) was 92 cells/µL and the ABSOLUTE EOSINOPHIL (120 h, time 5 day) was 52 cells/µL. The ABSOLUTE LYMPHOCYTE (120 h, time 5 day) was 6560 cells/µL, the ABSOLUTE MONOCYTE (120 h, time 5 day) was 160 cells/µL and the ABSOLUTE SEGMENTED NEUTROPHIL (120 h, time 5 day) was 1130 cells/µL. For the same compound, the BASOPHIL (120 h, time 5 day) was 1.14% and 0.92%, the EOSINOPHIL (120 h, time 5 day) was 0.68% and 0.43% and the “ERYTHROCYTE COUNT” value (120 h, time 5 day) was 7.51 x10E6/uL and 7.03 x10E6/uL. The HEMATOCRIT (120 h, time 5 day) was 46.04% and 46.55%, the HEMOGLOBIN (120 h, time 5 day) was 15.62 G/DL and 14.32 G/DL and the “LEUKOCYTE COUNT” value (120 h, time 5 day) was 8.03 x10E3/uL and 12.22 x10E3/uL. For the same compound, the LYMPHOCYTE (120 h, time 5 day) was 81.54% and 82.65%, the “MEAN CORPUSCULAR HEMOGLOBIN” value (120 h, time 5 day) was 20.84 pg and 20.35 pg and the “MEAN CORPUSCULAR HEMOGLOBIN CONCENTRATION” value (120 h, time 5 day) was 33.94 G/DL and 30.77 G/DL. The “MEAN CORPUSCULAR VOLUME” value (120 h, time 5 day) was 61.42 fL and 66.28 fL, the MONOCYTE (120 h, time 5 day) was 2% and 2.28% and the NEUTROPHIL (120 h, time 5 day) was 14.24% and 12.73%. The “PLATELET COUNT” value (120 h, time 5 day) was 1427.2 x10E3/uL and 1268.67 x10E3/uL, the “ALANINE AMINOTRANSFERASE” value [2] was 35.6 u/L and 44.5 u/L and the ALBUMIN [2] was 3.64 G/DL and 3.73 G/DL. For the same compound, the “ALKALINE PHOSPHATASE” value [2] was 233 u/L and 340.83 u/L, the “ASPARTATE AMINOTRANSFERASE” value [2] was 81 u/L and 66.5 u/L and the “BLOOD UREA NITROGEN” value [2] was 12 mg/dL and 13.33 mg/dL. The CHLORIDE [2] was 109.4 MEQ/L and 102.17 MEQ/L, the CHOLESTEROL [2] was 47.6 mg/dL and 82.17 mg/dL and the “CREATINE PHOSPHOKINASE” value [2] was 183.2 u/L and 146.67 u/L. For the same compound, the CREATININE [2] was 0.4 mg/dL and 0.35 mg/dL, the GLUCOSE [2] was 134.6 mg/dL and 186.17 mg/dL and the “LACTATE DEHYDROGENASE” value [2] was 89.4 u/L. For the same compound, the LIPASE [2] was 17.2 u/L, the PHOSPHORUS [2] was 13.02 mg/dL and 11.83 mg/dL and the POTASSIUM [2] was 7 MEQ/L and 6.47 MEQ/L. The SODIUM [2] was 149.6 MEQ/L and 148.83 MEQ/L, the “TOTAL PROTEIN” value [2] was 6.06 G/DL and 6.27 G/DL and the “URIC ACID” value [2] was 1.04 mg/dL. It also gave an ABSOLUTE BASOPHIL (2184 h, time 91 day) of 130 cells/µL, an ABSOLUTE EOSINOPHIL (2184 h, time 91 day) of 70 cells/µL and an ABSOLUTE LYMPHOCYTE (2184 h, time 91 day) of 8670 cells/µL. For the same compound, the ABSOLUTE MONOCYTE (2184 h, time 91 day) was 160 cells/µL, the ABSOLUTE SEGMENTED NEUTROPHIL (2184 h, time 91 day) was 1530 cells/µL and the BASOPHIL (2184 h, time 91 day) was 1.13%. For the same compound, the EOSINOPHIL (2184 h, time 91 day) was 0.66%, the “ERYTHROCYTE COUNT” value (2184 h, time 91 day) was 9.13 x10E6/uL and the HEMATOCRIT (2184 h, time 91 day) was 48.47%. The HEMOGLOBIN (2184 h, time 91 day) was 16.56 G/DL, the “LEUKOCYTE COUNT” value (2184 h, time 91 day) was 10.5 x10E3/uL and the LYMPHOCYTE (2184 h, time 91 day) was 81.63%. For the same compound, the “MEAN CORPUSCULAR HEMOGLOBIN” value (2184 h, time 91 day) was 18.16 pg, the “MEAN CORPUSCULAR HEMOGLOBIN CONCENTRATION” value (2184 h, time 91 day) was 34.14 G/DL and the “MEAN CORPUSCULAR VOLUME” value (2184 h, time 91 day) was 53.14 fL. The MONOCYTE (2184 h, time 91 day) was 1.53%, the NEUTROPHIL (2184 h, time 91 day) was 14.71% and the “PLATELET COUNT” value (2184 h, time 91 day) was 1280.22 x10E3/uL. For the same compound, the “ALANINE AMINOTRANSFERASE” value [3] was 28.89 u/L, the ALBUMIN [3] was 3.69 G/DL and the “ALKALINE PHOSPHATASE” value [3] was 101.11 u/L. For the same compound, the “ASPARTATE AMINOTRANSFERASE” value [3] was 70.67 u/L, the “BLOOD UREA NITROGEN” value [3] was 16.78 mg/dL and the CHLORIDE [3] was 104.56 MEQ/L. For the same compound, the CHOLESTEROL [3] was 58.78 mg/dL.
